# Experimental data: PubChem BioAssay AID2060512 (Molecular Pharmacology Branch, DTP, NCI, 2025)
# Tested on: 186277-243-T-J2-PDC complex spheroid viability
# Assay: Anticancer human tumor 186277-243-T-J2-PDC patient-derived colon adenocarcinoma cell line growth inhibition [GQUAD]
# Conditions: for IC50: curve of first compound; for viability, T/C: stronger effect = lower value
# From the text: DNA G-quadruplex Stabilizer Agents in Combinations in Complex Spheroids
# A high-throughput screen of multi-cell type tumor spheroids was designed to identify active combinations of DNA G-quadruplex stabilizer agents and targeted small molecules. Complex spheroids include a stromal component modeled by human endothelial cells (HUVEC) and fibroblasts modeled by human mesenchymal stem cells (MSCs). The concentration ranges selected for each drug and investigational agent were based upon clinically achievable concentrations if the clinical Cmax of the agent was known.
# Compounds. The drugs and investigational agents: pidnarulex (CX-5461; NSC782164), APTO-253 (NSC789042), BRACO-19 (NSC847499), peposertib (NSC802822), ceralasertib (NSC780249), elimusertib (NSC800525), camonsertib (NSC841442), AZD-1390 (NSC803789), olaparib (NSC753686), talazoparib (NSC767125), ART-558 (NSC835418), sotorasib (NSC818433), MRTX-1133 (NSC836407), SN-38 (NSC673596), topotecan (NSC609699), etoposide (NSC141540), doxorubicin (NSC123127), gemcitabine (NSC613327), 5-fluorouracil (NSC19893), paclitaxel (NSC125973), vemurafenib (NSC761431), panobinostat (NSC761190), R-306465 (JNJ-16241199; NSC773264), adavosertib (NSC754352), TP-3654 (NSC805149), carboplatin (NSC241240), KSQ-4279 (NSC840948), and staurosporine (NSC755774) were obtained from the National Cancer Institute (NCI) Developmental Therapeutics Program Chemical Repository (34). The FDA-approved anticancer drug set is available from the NCI Developmental Therapeutics Program. […] The stock solutions were prepared in dimethyl sulfoxide (DMSO, Sigma-Aldrich, St. Louis, MO, cat. D2650) at 800-fold the tested concentration and stored at -70 degrees C prior to their use. All drugs and investigational agents were tested over a range starting from a high concentration at or near the clinical Cmax and decreasing in half-log increments. If the clinical Cmax for an agent had not been determined, the highest concentration tested was 10 microM.
# 2.3 Cell Culture. All cells were maintained in an incubator at 37 degrees C and 5% CO2 with 95% humidity. The PDC lines were cultured according to standard operating procedures established by the NCI PDMR. All PDCs were thawed and cultured in Matrigel-coated flasks prepared with a working solution of 1X Ham's F-12 nutrient mix, without supplementation (Invitrogen, cat. 11765054), 100 U/mL penicillin-streptomycin (Invitrogen, cat. 15140122), and 2.5% Matrigel (Corning Inc., cat. 354248) for the first three passages. The 857933-349-R-J2-PDC line was cultured in 6C/Colon 1B media, which includes advanced DMEM/F-12 (Thermo Fisher Scientific, cat. 12634028), 10 mM HEPES (Thermo Fisher Scientific, cat. 15630080), 1X GlutaMAX supplement (Thermo Fisher Scientific, cat. 35050061), 0.1 mg/mL primocin (InvivoGen, cat. ant-pm-2), 10% defined fetal bovine serum, heat inactivated (HyClone Laboratories Inc., cat. SH30070.03HI), 50% L-WRN conditioned media (ATCC, cat. CRL-3276), 1.25 mM N-Acetyl-L-cysteine (Sigma-Aldrich, cat. A9165), 10 mM nicotinamide (Sigma-Aldrich, cat. N0636), 1X B-27 supplement (Thermo Fisher Scientific, cat. 17504044), 1X N-2 supplement (Thermo Fisher Scientific, cat. 17502048), 10 microM Y-27632 dihydrochloride (Tocris Bioscience, cat. 1254), and 50 ng/mL human EGF recombinant protein (Thermo Fisher Scientific, cat. PHG0311). The 485176-168-R4-J1-PDC line was cultured in Panc media, which includes all 6C/Colon 1B media components plus 100 ng/mL human FGF-10 (Thermo Fisher Scientific, cat. 100-26), 500 nM SB-431542 (Selleckchem, cat. S1067), and gastrin (Tocris, cat. 3006).
# […]
# [1] = second compound 0.0316 µM, first compound 0.0316 µM
# [2] = second compound 0.0316 µM, first compound 0.1 µM
# [3] = second compound 0.0316 µM, first compound 0.316 µM
# [4] = second compound 0.0316 µM, first compound 1 µM
# [5] = second compound 0.0316 µM, first compound 3.16 µM
# [6] = second compound 0.0316 µM, first compound 10 µM
# [7] = second compound 0.1 µM, first compound 0.0316 µM
# [8] = second compound 0.1 µM, first compound 0.1 µM
# [9] = second compound 0.1 µM, first compound 0.316 µM
# [10] = second compound 0.1 µM, first compound 1 µM
# [11] = second compound 0.1 µM, first compound 3.16 µM
# [12] = second compound 0.1 µM, first compound 10 µM
# [13] = second compound 0.316 µM, first compound 0.0316 µM
# [14] = second compound 0.316 µM, first compound 0.1 µM
# [15] = second compound 0.316 µM, first compound 0.316 µM
# [16] = second compound 0.316 µM, first compound 1 µM
# [17] = second compound 0.316 µM, first compound 3.16 µM
# [18] = second compound 0.316 µM, first compound 10 µM
# [19] = second compound 1 µM, first compound 0.0316 µM
# [20] = second compound 1 µM, first compound 0.1 µM
# [21] = second compound 1 µM, first compound 0.316 µM
# [22] = second compound 1 µM, first compound 1 µM
# [23] = second compound 1 µM, first compound 3.16 µM
# [24] = second compound 1 µM, first compound 10 µM
# [25] = second compound 3.16 µM, first compound 0.0316 µM
# [26] = second compound 3.16 µM, first compound 0.1 µM
# [27] = second compound 3.16 µM, first compound 0.316 µM
# [28] = second compound 3.16 µM, first compound 1 µM
# [29] = second compound 3.16 µM, first compound 3.16 µM
# [30] = second compound 3.16 µM, first compound 10 µM
# [31] = second compound 10 µM, first compound 0.0316 µM
# [32] = second compound 10 µM, first compound 0.1 µM
# [33] = second compound 10 µM, first compound 0.316 µM
# [34] = second compound 10 µM, first compound 1 µM
# [35] = second compound 10 µM, first compound 3.16 µM
# [36] = second compound 10 µM, first compound 10 µM
# 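Further: spheroids exposed to drugs for 7 days.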
# 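Wherever viability, T/C is given: 100% = DMSO vehicle control viability.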
structure (smiles),measurement,setting,value
CC1COCCN1c1cc(C2(O)CC3CCC(C2)O3)c2cnn(-c3ccn[nH]3)c2n1 (centres undefined) + Cc1[nH]c2ccc(F)cc2c1-c1nc2c3cccnc3c3ncccc3c2[nH]1,IC50,second compound 0.0316 µM,0.0381 µM
same,IC50,second compound 0.1 µM,0.0339 µM
same,IC50,second compound 0.316 µM,< 0.0316 µM
same,IC50,second compound 1 µM,< 0.0316 µM
same,IC50,second compound 3.16 µM,< 0.0316 µM
same,IC50,second compound 10 µM,0.0332 µM
same,"viability, T/C",[1],57.5%
same,"viability, T/C",[2],10.8%
same,"viability, T/C",[3],6.48%
same,"viability, T/C",[4],5.12%
same,"viability, T/C",[5],5.33%
same,"viability, T/C",[6],4.69%
same,"viability, T/C",[7],52.6%
same,"viability, T/C",[8],10.2%
same,"viability, T/C",[9],8.88%
same,"viability, T/C",[10],4.75%
same,"viability, T/C",[11],5.69%
same,"viability, T/C",[12],3.63%
same,"viability, T/C",[13],31.9%
same,"viability, T/C",[14],11.2%
same,"viability, T/C",[15],8.68%
same,"viability, T/C",[16],5.79%
same,"viability, T/C",[17],6.74%
same,"viability, T/C",[18],4.58%
same,"viability, T/C",[19],40.6%
same,"viability, T/C",[20],22.6%
same,"viability, T/C",[21],6.11%
same,"viability, T/C",[22],7.77%
same,"viability, T/C",[23],6.18%
same,"viability, T/C",[24],4.27%
same,"viability, T/C",[25],48.3%
same,"viability, T/C",[26],14.4%
same,"viability, T/C",[27],6.36%
same,"viability, T/C",[28],4.01%
same,"viability, T/C",[29],5.26%
same,"viability, T/C",[30],2.84%
same,"viability, T/C",[31],52%
same,"viability, T/C",[32],16.5%
same,"viability, T/C",[33],8.81%
same,"viability, T/C",[34],3.92%
same,"viability, T/C",[35],4.33%
same,"viability, T/C",[36],1.45%
COc1ccc([C@@H](O)c2cc(-c3ncnc4cc(N5CCOCC5)ccc34)c(F)cc2Cl)nn1 + Cc1[nH]c2ccc(F)cc2c1-c1nc2c3cccnc3c3ncccc3c2[nH]1,IC50,second compound 0.0316 µM,4.92 µM
same,IC50,second compound 0.1 µM,6.89 µM
same,IC50,second compound 0.316 µM,6.47 µM
same,IC50,second compound 1 µM,5.92 µM
same,IC50,second compound 3.16 µM,4.99 µM
same,IC50,second compound 10 µM,5.74 µM
same,"viability, T/C",[1],95.7%
same,"viability, T/C",[2],101%
same,"viability, T/C",[3],97.2%
same,"viability, T/C",[4],80.9%
same,"viability, T/C",[5],66.3%
same,"viability, T/C",[6],25.9%
same,"viability, T/C",[7],94.5%
same,"viability, T/C",[8],89.9%
same,"viability, T/C",[9],104%
same,"viability, T/C",[10],99.5%
same,"viability, T/C",[11],85.2%
same,"viability, T/C",[12],33.1%
same,"viability, T/C",[13],105%
same,"viability, T/C",[14],94.8%
same,"viability, T/C",[15],103%
same,"viability, T/C",[16],106%
same,"viability, T/C",[17],81.5%
same,"viability, T/C",[18],30.9%
same,"viability, T/C",[19],89.2%
same,"viability, T/C",[20],90%
same,"viability, T/C",[21],115%
same,"viability, T/C",[22],102%
same,"viability, T/C",[23],71.2%
same,"viability, T/C",[24],32.4%
same,"viability, T/C",[25],93.4%
same,"viability, T/C",[26],92.7%
same,"viability, T/C",[27],112%
same,"viability, T/C",[28],85.3%
same,"viability, T/C",[29],68.6%
same,"viability, T/C",[30],23.2%
same,"viability, T/C",[31],93.4%
same,"viability, T/C",[32],91.4%
same,"viability, T/C",[33],114%
same,"viability, T/C",[34],88.8%
same,"viability, T/C",[35],66.7%
same,"viability, T/C",[36],34.9%
